According to patent publication US20250288627A1, “COMPOSITION FOR AMELIORATING, PREVENTING OR TREATING SYSTEMIC SCLEROSIS AND PULMONARY FIBROSIS CONTAINING BIFIDOBACTERIUM LONGUM RAPO” (INDUSTRY-ACADEMIC COOPERATION FOUNDATION GYEONGSANG …, priority 2024, published 2025):

System: mice with idiopathic pulmonary fibrosis
Experiment: Single/combination administration of pirfenidone and Bifidobacterium longum RAPO in idiopathic pulmonary fibrosis mice (intratracheal BLM 2 U/mouse kg)
Assay type: in vivo
Settings: for pulmonary fibrosis: FIG. 3
Source text: To determine whether or not administration of a combination of pirfenidone (PFD), which is a conventional approved and used drug for pulmonary fibrosis, with Bifidobacterium longum RAPO, has a synergistic therapeutic effect due to Bifidobacterium longum RAPO, the inhibitory effects on pulmonary fibrosis after single and combination administration of PFD and Bifidobacterium longum were compared and evaluated in mice with idiopathic pulmonary fibrosis.
Idiopathic pulmonary fibrosis was induced by a single intratracheal injection of 50 μL (2 U/mouse kg) of BLM into 8-week-old male C57BL/6 mice to induce pulmonary fibrosis. Pirfenidone (PFD) and Bifidobacterium longum RAPO were administered orally 5 times a week for a total of 2 weeks, starting 7 days after inducing pulmonary fibrosis with BLM until the 21st day, the end date of the experiment. The administration groups and doses were as follows: 1) Normal control group: normal mice that were not administered any treatment; 2) disease control group: IPF mice administered vehicle containing neither PFD nor Bifidobacterium longum RAPO; 3) P100 group: IPF mice administered PFD 100 mg/mouse kg; 4) P200 group: IPF mice administered PFD 200 mg/mouse kg; 5) RAPO-A group: IPF mice administered Bifidobacterium longum RAPO 1×10^8 CFU/mouse; 6) RAPO-B group: IPF mice administered Bifidobacterium longum RAPO 5×10^8 CFU/mouse; 8) Comb A group: IPF mice administered a combination of PFD 100 mg/mouse kg and Bifidobacterium longum RAPO 1×10^8 CFU/mouse; 7) Comb B group: IPF mice administered a combination of 100 mg/mouse kg and Bifidobacterium longum RAPO 5×10^8 CFU/mouse. Efficacy evaluation was performed as follows. Lung tissues of mice with fibrosis induced on the 21st day after the start of BLM administration were sampled and fixed with formalin to form paraffin tissue blocks. The formed paraffin blocks were cut into 5 μm thick sections with a microtome and stained with Masson-Trichrome (MT), and the degree of pulmonary fibrosis was evaluated by analysis of an Ashcroft score, a collagen area, and an alveoli area.

[1] = P100 group: PFD 100 mg/mouse kg alone, compared to vehicle group

In the case of `Cc1ccc(=O)n(-c2ccccc2)c1` [PFD, pirfenidone], the “pulmonary fibrosis amelioration relative to P200 group” value (P100 group: PFD 100 mg/mouse kg alone, compared to P200 group) is reported as “did not ameliorate pulmonary fibrosis comparable to the P200 group”, the Ashcroft score [1] is reported as “improvement” and the collagen area [1] is reported as “improvement”. The pulmonary fibrosis [1] was “also alleviated pulmonary fibrosis” and the pulmonary fibrosis (P200 group: PFD 200 mg/mouse kg alone, oral, 5 times a week, 2 weeks, compared to vehicle group) was “significantly alleviated pulmonary fibrosis”.
